According to patent publication US12390430B1 (SpringWorks Therapeutics, Inc., priority 2024, dated 2025):
Where two headings read alike, the source gives them in different places.

Experiments:
[1] = Clinical pharmacokinetics of mirdametinib (Table A); format: in vivo, human; details: for Tmax / AUC(0-t) / Cmax: human, plasma; for Tmax: oral, read-out: Tmax [median (range)]; for AUC(0-t) / Cmax: po, steady state, BID oral dosing; for AUC(0-t): read-out: Steady-state exposure AUClast [geometric mean (geometric % CV)]; for Cmax: read-out: Steady-state exposure Cmax [geometric mean (geometric % CV)]
Method: Study treatment was administered orally at a twice daily (BID) dose specified in the table below. Dosing was on a 28-day Cycle (4-week course) with a 3 week on/1 week off schedule. The treatment period will last for up to 24 Cycles followed by a 30-day Safety Follow-Up period.

[2] = Human plasma protein binding; format: in vitro ADME
[3] = Excretion of radioactivity and unchanged mirdametinib; format: in vivo
[4] = geometric least squares mean ratio
[5] = pediatric patients (2 to <18 years)

In the case of `O=C(NOC[C@H](O)CO)c1ccc(F)c(F)c1Nc1ccc(I)cc1F` (single isomer, unassigned) [mirdametinib], the “Food effect on AUCinf [GMR% (90% CI)]” value [1, 4] is reported as 93% (90%, 96%), the “Food effect on Cmax [GMR% (90% CI)]” value [1, 4] is reported as 57% (54%, 61%) and the Tmax ([1]; capsule) is reported as 64.8 min. It also gave a Tmax ([1]; tablet) of 49.8 min, an AUC(0-t) ([1]; adult patients (>18 years)) of 431 ng·h/mL and a Cmax ([1]; adult patients (≥18 years)) of 188 ng/mL. It also gave an AUC(0-t) [1, 5] of 459 ng·h/mL, a Cmax [1, 5] of 191 ng/mL and a fraction unbound [2] of under 0.01. The “Excretion: radioactivity in feces” value ([3]; feces) was “In feces: 27%”, the “Excretion: radioactivity in urine” value ([3]; urine) was “In urine: 68%” and the “Excretion: unchanged mirdametinib in urine” value ([3]; urine) was “In urine: 0.7%”. The “Excretion: unchanged mirdametinib in urine and feces” value ([3]; urine and feces) was “In urine and feces: 9%”.
